In the supplement of paper PMC10307832:

Legend:
Assay in all cases: relative viability (nuclei count vs DMSO), 5 days (fraction); higher = more cells survive
Mirin + Lapatinib = compound: N=C1NC(=O)/C(=C/c2ccc(O)cc2)S1 [Mirin] + CS(=O)(=O)CCNCc1ccc(-c2ccc3ncnc(Nc4ccc(OCc5cccc(F)c5)c(Cl)c4)c3c2)o1 [Lapatinib] (partner 2 µM)
How it was run: (§1)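 Each reported value is a median over duplicate plates. It expresses relative viability: treated-well nuclei count divided by vehicle-well nuclei count. Lung cancer cell lines in 1536-well plates were dosed by pin tool a day after seeding, alone with one drug or with a fixed anchor-drug dose plus five library-drug doses (not always all listed) in √10 steps, and nuclei were counted after 5 days.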

[1] = compound: CCC1=CN=CN=C1N2CCN(CC2)CC3=NC4=C(N3)C=C(C=C4)C(F)(F)F + N=C(N)NC(=N)NCCc1ccccc1 [Phenformin] (partner 250 µM)
How it was run: as §1

[2] = compound: CCn1c(-c2nonc2N)nc2cnc(Oc3cccc(NC(=O)c4ccc(OCCN5CCOCC5)cc4)c3)cc21 + Cc1nc(NC(=O)N2CCC[C@H]2C(N)=O)sc1-c1ccnc(C(C)(C)C(F)(F)F)c1 [Alpelisib] (partner 2 µM)
How it was run: as §1

[3] = compound: CCC1=CN=CN=C1N2CCN(CC2)CC3=NC4=C(N3)C=C(C=C4)C(F)(F)F + Nc1ncn([C@H]2C[C@H](O)[C@@H](CO)O2)c(=O)n1 [Decitabine] (partner 2 µM)
How it was run: as §1

Row | Cell Line | relative viability (Mirin + Lapatinib; first compound 0.25 µM) | relative viability (Mirin + Lapatinib; first compound 0.7906 µM) | relative viability (Mirin + Lapatinib; first compound 2.5 µM) | relative viability (Mirin + Lapatinib; first compound 7.906 µM) | relative viability (Mirin + Lapatinib; first compound 25 µM) | relative viability ([1]; first compound 0.04 µM) | relative viability ([1]; first compound 0.1265 µM) | relative viability ([1]; first compound 0.4 µM) | relative viability ([1]; first compound 1.265 µM) | relative viability ([1]; first compound 4 µM) | relative viability ([2]; first compound 0.04 µM) | relative viability ([2]; first compound 0.1265 µM) | relative viability ([2]; first compound 0.4 µM) | relative viability ([2]; first compound 1.265 µM) | relative viability ([2]; first compound 4 µM) | relative viability ([3]; first compound 0.04 µM) | relative viability ([3]; first compound 0.1265 µM) | relative viability ([3]; first compound 0.4 µM) | relative viability ([3]; first compound 1.265 µM) | relative viability ([3]; first compound 4 µM)
1 | HCC-366 | 1.06 | 0.957 | 1.07 | 0.986 | 0.752 | 0.539 | 0.64 | 0.57 | 0.432 | 0.536 | 0.462 | 0.429 | 0.21 | 0.0494 | 0.031 | 0.356 | 0.288 | 0.317 | 0.307 | 0.353
2 | NCI-H2405 | 1.11 | 1.12 | 1.02 | 1.05 | 1.22 | 0.418 | 0.401 | 0.419 | – | 0.492 | 0.893 | 0.425 | 0.368 | 0.326 | 0.274 | 0.748 | 0.715 | 0.711 | – | 0.795
3 | A549 | 0.914 | 1.15 | 1.04 | 1.08 | 0.598 | 0.178 | 0.143 | 0.191 | 0.161 | 0.164 | 0.986 | 0.785 | 0.426 | 0.23 | 0.0785 | 0.277 | 0.121 | 0.237 | 0.265 | 0.247
4 | LXF-289 | 0.906 | 1.01 | 0.91 | 1.04 | 1.04 | 0.54 | 0.461 | 0.547 | 0.483 | 0.529 | 1.1 | 1.12 | 1 | 0.96 | 0.941 | 0.348 | 0.325 | 0.426 | 0.343 | 0.419
5 | NCI-H1793 | 0.899 | 0.413 | 0.914 | 0.881 | 0.652 | 0.359 | 0.354 | 0.292 | – | 0.253 | 0.639 | 0.671 | 0.662 | 0.652 | 0.599 | 0.479 | 0.484 | 0.436 | 0.428 | 0.432
6 | LU99A | 1.05 | 0.79 | 0.888 | 0.809 | 0.749 | 0.858 | 0.795 | 0.808 | 0.634 | 0.942 | 0.769 | 0.642 | 0.447 | 0.51 | 0.46 | 0.906 | 0.877 | 0.785 | 0.837 | 0.843
7 | PC-3 [JPC-3] | 0.52 | 0.469 | 0.462 | 0.455 | 0.491 | 0.456 | 0.456 | 0.457 | 0.505 | 0.479 | 1.1 | 1.02 | 1.01 | 1.07 | 1.05 | – | 0.779 | 0.706 | 0.771 | 0.835
8 | NCI-H2085 | 0.828 | 0.791 | 0.823 | 0.807 | 0.628 | 0.724 | 0.78 | 0.663 | 0.522 | 0.735 | 1.15 | 0.959 | 0.86 | 0.869 | 0.845 | 0.487 | 0.526 | 0.557 | 0.476 | 0.573
9 | NCI-H2170 | 0.273 | 0.223 | 0.278 | 0.324 | 0.274 | 0.401 | 0.359 | 0.351 | 0.382 | 0.361 | 0.748 | 0.747 | 0.912 | 0.719 | 0.817 | 0.44 | 0.462 | 0.451 | 0.433 | 0.461
10 | HCC-78 | 0.921 | 0.761 | 0.837 | 0.774 | 0.552 | 0.614 | 0.618 | 0.637 | 0.588 | 0.555 | 0.494 | 0.336 | 0.429 | 0.487 | 0.455 | 0.667 | 0.501 | 0.643 | 0.6 | 0.674
11 | NCI-H1395 | 0.947 | – | 1.08 | 0.934 | 0.853 | 0.41 | 0.436 | 0.444 | 0.415 | 0.458 | 1.26 | 0.877 | 0.948 | 0.493 | 0.634 | 0.705 | 0.676 | 0.692 | – | 0.743
12 | H3255 | 0.25 | 0.307 | 0.236 | 0.241 | 0.218 | 0.398 | 0.42 | 0.347 | 0.352 | 0.392 | 1.08 | 0.622 | 0.622 | 0.583 | 0.594 | 0.578 | 0.555 | 0.594 | 0.52 | 0.55
13 | HCC-15 | 0.874 | 0.546 | 0.9 | 0.803 | 0.79 | 0.487 | 0.46 | 0.465 | 0.445 | 0.434 | 1.03 | 0.831 | 0.953 | 0.867 | 0.845 | 0.537 | 0.558 | 0.633 | 0.608 | 0.575
14 | NCI-H727 | 0.995 | 0.714 | 0.96 | 0.672 | 0.851 | 0.505 | 0.541 | 0.439 | – | 0.671 | 0.745 | 0.833 | 0.751 | 0.84 | 0.713 | 0.798 | 0.875 | 0.956 | 0.655 | 0.941
15 | NCI-H2009 | 0.883 | 0.469 | 1.02 | 0.847 | 0.993 | 0.483 | 0.498 | 0.45 | 0.419 | 0.374 | 1.01 | 0.987 | 0.857 | 0.745 | 0.5 | 0.381 | 0.348 | 0.361 | 0.37 | 0.373
